The text below walks through data of the NIST ThermoML archive (doi:10.1016/j.jct.2012.11.004).

SMILES strings stand for the structures. ± gives the expanded uncertainty stated by the source.

For data set [1] the following is noted: 101 kPa, Liquid, Vibrating tube method.
Data set [2] can be described thus: mn = molality of the nth substance listed, in mol/kg. The note with it: 101 kPa, Liquid, Vibrating tube method, m2 = 0.

Usually mass density stands for mass per unit of volume. `CC(=O)N(C)C` [N,N-dimethylethanamide]: the mass density in data set [1] (283.15 K) was 950.04 ± 0.3 kg/m3; in data set [1] (293.15 K), 940.83 ± 0.3 kg/m3; in data set [1] (298.15 K), 936.22 ± 0.3 kg/m3; in data set [1] (303.15 K), 931.61 ± 0.3 kg/m3; in data set [1] (313.15 K) it was 922.35 ± 0.3 kg/m3; in data set [1] (323.15 K) it was 913.08 ± 0.3 kg/m3. The mass density in data set [1] (333.15 K) is reported as 903.76 ± 0.3 kg/m3.
`CC(=O)N(C)C` [N,N-dimethylethanamide] + O=S(=O)([O-])C(F)(F)F.[Na+]: the mass density in data set [2] (283.15 K) is listed as 950.04 ± 0.3 kg/m3; in data set [2] (293.15 K) it was 940.83 ± 0.3 kg/m3; in data set [2] (298.15 K), 936.22 ± 0.3 kg/m3; in data set [2] (303.15 K), 931.61 ± 0.3 kg/m3; in data set [2] (313.15 K) it was 922.35 ± 0.3 kg/m3; in data set [2] (323.15 K), 913.08 ± 0.3 kg/m3. Further, in data set [2] (333.15 K), the mass density is given as 903.76 ± 0.3 kg/m3.
Regarding `CN(C)C=O` [dimethylformamide], the mass density in data set [1] (283.15 K) turned out to be 958.07 ± 0.3 kg/m3; in data set [1] (293.15 K) it was 948.56 ± 0.3 kg/m3; in data set [1] (298.15 K), 943.79 ± 0.31 kg/m3; in data set [1] (303.15 K), 939.01 ± 0.31 kg/m3; in data set [1] (313.15 K), 929.43 ± 0.31 kg/m3; in data set [1] (323.15 K), 919.81 ± 0.31 kg/m3. In data set [1] (333.15 K), the mass density was determined as 910.11 ± 0.31 kg/m3.
Turning to `CN(C)C=O` [dimethylformamide] + O=S(=O)([O-])C(F)(F)F.[Na+], the mass density in data set [2] (283.15 K) is recorded as 958.07 ± 0.3 kg/m3; in data set [2] (293.15 K), 948.56 ± 0.3 kg/m3; in data set [2] (298.15 K), 943.79 ± 0.31 kg/m3; in data set [2] (303.15 K) it was 939.01 ± 0.31 kg/m3; in data set [2] (313.15 K) it was 929.43 ± 0.31 kg/m3; in data set [2] (323.15 K), 919.81 ± 0.31 kg/m3. For the same compound, the mass density in data set [2] (333.15 K) is 910.11 ± 0.31 kg/m3.
